Values quoted from earlier work as cited in patent publication US4698328A, “Method of increasing bone mass” (The General Hospital Corporation, priority 1986, dated 1987).

Details: osteoporosis in humans; Reeve et al. 1980

For “hPTH (1-34): fragment of human parathyroid hormone: first thirty-four amino acid residues (SVSEIQLMHNLGKHLNSMERVEWLRKKLQDVHNF; Parathyroid hormone; UniProt P01270 32-65, looked up, fragment)”, the axial trabecular bone is listed as “considerable increase” and the “calcium retention, and hence total bone mass” value is listed as “improved in only about half of these patients”.
